Laboratory results from PMC9837035 (Nature Communications, 2023).
Values joined by “and” are separate entries in the source; they are usually repeats but may differ in a detail not shown here. Identical values can stand only once.

Experiments:
PRMT3 = molecular target: T1, PRMT3 (Homo sapiens, UniProt O60678); assay: Radioisotope-based methyltransferase assay (selectivity); format: biochemical
T1 construct: purchased Reaction Biology

SUV39H2 = molecular target: T2, SUV39H2 (Homo sapiens, UniProt Q9H5I1); assay: as above; format: biochemical
T2 construct: purchased Reaction Biology

HbF in HUDEP-2 cells = assay: Flow cytometry of HbF-expressing HUDEP-2 cells; format: cell-based, human; parameters: Flow cytometric analysis in HUDEP-2 cells: unit not given here; settings: for Percentage of HbF-expressing cells: HUDEP-2, 11 days
Description: For the analysis of HbF expression, HUDEP-2 cells or cells differentiated from human CD34 + progenitor cells were fixed in 0.05% glutaraldehyde for 10 min, then washed two times with PBS containing 2% FBS (PBS/2% FBS) and permeabilized with 0.1% Triton X-100 (prepared in PBS/2% FBS; Life Technologies) for 5 min. After washing with PBS/2% FBS two times, cells were stained with allophycocyanin (APC)-conjugated HbF antibody (1:1, Invitrogen, MHFH05). One million cells were incubated with the HbF–APC antibody for 30 min in the dark at 4 °C. Cells were washed twice with PBS/2% FBS, then suspended in 0.2 ml PBS/2% FBS and analyzed using a FACSCalibur (Becton Dickinson). To assess erythroid differentiation, hematopoietic cells differentiated from human CD34 cells were stained with FITC-conjugated CD45 antibody (1:1, Becton Dickinson, 555482) and APC-conjugated glycophorin A antibody (1:20, Becton Dickinson, 551336). Stained cells were suspended in 0.2 ml PBS/2% FBS containing 1 μg/ml propidium iodide (Sigma) and analyzed by FACSCalibur. The results of flow cytometer were further analyzed by FlowJo software (Becton Dickinson).

[1] = Liver microsomal stability assay, human; format: in vitro ADME; settings: for Metabolic stability, % remaining of RK-701: Human
Description: [Human/Rat] Liver microsome analyses (human, rat) were performed in triplicate by the Sumika Chemical Analysis Service (SCAS) according to the standard protocols. […] [Dog/Monkey] Liver microsome analyses (dog, monkey) were performed in duplicate by RIKEN according to the same protocols as SCAS.

DNMT3b = DNMT3b (Homo sapiens, UniProt Q9UBC3); assay: biochemical
GLP [2] = molecular target: T3, GLP (Homo sapiens, UniProt Q9H9B1); assay: biochemical
T3 sequence (Q9H9B1 1-1298): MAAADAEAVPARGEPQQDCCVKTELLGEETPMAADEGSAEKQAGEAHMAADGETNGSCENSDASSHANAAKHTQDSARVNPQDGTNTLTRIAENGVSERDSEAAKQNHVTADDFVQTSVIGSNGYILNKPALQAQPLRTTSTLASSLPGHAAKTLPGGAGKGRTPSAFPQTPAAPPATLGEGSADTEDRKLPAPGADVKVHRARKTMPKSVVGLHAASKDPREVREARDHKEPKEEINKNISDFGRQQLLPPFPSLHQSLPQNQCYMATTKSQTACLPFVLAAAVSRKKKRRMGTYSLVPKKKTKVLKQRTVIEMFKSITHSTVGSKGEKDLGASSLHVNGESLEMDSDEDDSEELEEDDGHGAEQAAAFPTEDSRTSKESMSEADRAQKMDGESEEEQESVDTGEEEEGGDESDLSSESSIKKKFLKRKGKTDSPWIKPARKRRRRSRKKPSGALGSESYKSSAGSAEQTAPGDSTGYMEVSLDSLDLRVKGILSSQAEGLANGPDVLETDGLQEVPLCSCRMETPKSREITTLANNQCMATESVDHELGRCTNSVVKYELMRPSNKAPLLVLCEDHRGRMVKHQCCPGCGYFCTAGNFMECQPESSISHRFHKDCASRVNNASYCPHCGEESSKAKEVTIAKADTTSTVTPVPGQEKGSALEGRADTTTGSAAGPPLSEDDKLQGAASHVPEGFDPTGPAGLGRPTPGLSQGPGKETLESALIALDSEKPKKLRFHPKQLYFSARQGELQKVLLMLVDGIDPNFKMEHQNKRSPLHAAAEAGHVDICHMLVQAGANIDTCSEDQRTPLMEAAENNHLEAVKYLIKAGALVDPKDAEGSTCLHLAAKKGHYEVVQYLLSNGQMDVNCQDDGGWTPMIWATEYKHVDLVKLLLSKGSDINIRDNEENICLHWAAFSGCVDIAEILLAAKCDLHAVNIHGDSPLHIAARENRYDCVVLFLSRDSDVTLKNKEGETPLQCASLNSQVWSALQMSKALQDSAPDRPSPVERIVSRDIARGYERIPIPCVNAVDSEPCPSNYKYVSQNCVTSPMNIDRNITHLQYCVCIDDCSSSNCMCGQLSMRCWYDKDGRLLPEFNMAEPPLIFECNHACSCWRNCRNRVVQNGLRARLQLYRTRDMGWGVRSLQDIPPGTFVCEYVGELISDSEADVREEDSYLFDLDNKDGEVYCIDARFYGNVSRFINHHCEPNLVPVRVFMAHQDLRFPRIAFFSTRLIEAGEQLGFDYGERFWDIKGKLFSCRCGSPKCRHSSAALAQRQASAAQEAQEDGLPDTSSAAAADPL

GLP [3] = molecular target: T3, GLP; assay: Radioisotope-based methyltransferase assay (selectivity)

T1 sequence (O60678 whole entry): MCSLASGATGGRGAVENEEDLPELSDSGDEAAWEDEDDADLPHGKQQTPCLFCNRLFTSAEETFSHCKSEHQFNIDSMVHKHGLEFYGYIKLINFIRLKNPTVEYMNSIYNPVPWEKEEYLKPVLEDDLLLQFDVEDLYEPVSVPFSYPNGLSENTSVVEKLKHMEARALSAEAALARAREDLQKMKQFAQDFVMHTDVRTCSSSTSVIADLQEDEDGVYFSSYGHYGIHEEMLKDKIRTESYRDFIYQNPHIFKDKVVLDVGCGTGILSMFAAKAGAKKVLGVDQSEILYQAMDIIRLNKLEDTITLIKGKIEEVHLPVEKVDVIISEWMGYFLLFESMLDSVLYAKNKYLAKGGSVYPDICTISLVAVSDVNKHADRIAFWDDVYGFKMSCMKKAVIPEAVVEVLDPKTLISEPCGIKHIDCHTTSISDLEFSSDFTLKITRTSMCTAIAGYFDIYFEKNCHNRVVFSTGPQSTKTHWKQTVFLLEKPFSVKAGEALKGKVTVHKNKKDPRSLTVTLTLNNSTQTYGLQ
T2 sequence (Q9H5I1 whole entry): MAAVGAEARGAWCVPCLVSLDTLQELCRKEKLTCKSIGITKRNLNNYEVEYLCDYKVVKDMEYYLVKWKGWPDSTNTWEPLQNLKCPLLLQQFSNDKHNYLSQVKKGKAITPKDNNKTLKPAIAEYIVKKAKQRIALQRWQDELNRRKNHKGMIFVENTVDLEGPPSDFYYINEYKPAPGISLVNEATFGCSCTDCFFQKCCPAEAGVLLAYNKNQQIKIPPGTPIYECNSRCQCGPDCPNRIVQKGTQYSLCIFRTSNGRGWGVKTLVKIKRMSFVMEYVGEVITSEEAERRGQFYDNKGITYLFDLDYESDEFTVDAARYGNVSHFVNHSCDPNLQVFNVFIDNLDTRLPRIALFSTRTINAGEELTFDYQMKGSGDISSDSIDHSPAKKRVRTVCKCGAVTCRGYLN

## Cc1c(C(=O)NC(CCC2CC2)C(=O)Nc2ccc(C#N)cc2)[nH]c2c1C(=O)CC(C)(C)C2 (centres unmarked) [RK-701]
PRMT3; PRMT3, 1 μM SAM
  IC50: > 100 µM
PRMT3; PRMT3, RK-701 in duplicate
  IC50: > 100 µM
SUV39H2; SUV39H2, 1 μM SAM
  IC50: > 100 µM
SUV39H2; SUV39H2, RK-701 in duplicate
  IC50: > 100 µM
HbF in HUDEP-2 cells; 0.01 μM
  Flow cytometric analysis in HUDEP-2 cells: 6.04 and 5.19 and 7.23
  Percentage of HbF-expressing cells: 6.2±0.8%
HbF in HUDEP-2 cells; 0.03 μM
  Flow cytometric analysis in HUDEP-2 cells: 7.86 and 6.03 and 10.4
  Percentage of HbF-expressing cells: 8.1±1.8%
HbF in HUDEP-2 cells; 0.1 μM
  Flow cytometric analysis in HUDEP-2 cells: 15.5 and 13.3 and 20.6
  Percentage of HbF-expressing cells: 16.5±3.1%
HbF in HUDEP-2 cells; 0.3 μM
  Flow cytometric analysis in HUDEP-2 cells: 34.6 and 30.8 and 42.2
  Percentage of HbF-expressing cells: 35.9±4.7%
HbF in HUDEP-2 cells; 1 μM
  Flow cytometric analysis in HUDEP-2 cells: 55.6 and 50.6 and 60.1
  Percentage of HbF-expressing cells: 55.4±3.9%
HbF in HUDEP-2 cells; 3 μM
  Flow cytometric analysis in HUDEP-2 cells: 42.6 and 54.1 and 68.6
  Percentage of HbF-expressing cells: 55.1±10.6%
[1]; Time 5, replicate values
  Metabolic stability, % remaining of RK-701: 103.5% and 98.1%
[1]; Time 10, replicate values
  Metabolic stability, % remaining of RK-701: 104.9% and 98.1%
[1]; Time 20, replicate values
  Metabolic stability, % remaining of RK-701: 89.6% and 79.6%
[1]; Time 30, replicate values
  Metabolic stability, % remaining of RK-701: 78.5% and 70.7%
[1]; Time 60, replicate values
  Metabolic stability, % remaining of RK-701: 68.6% and 60.8%
[1]; human, liver microsomes, Metabolic stability, % remaining of RK-701, Human, Time 5, replicate values
  remaining at 5 min, 1 µM: 93.1%
[1]; human, liver microsomes, Metabolic stability, % remaining of RK-701, Human, Time 10, replicate values
  remaining at 10 min, 1 µM: 95.5%
[1]; human, liver microsomes, Metabolic stability, % remaining of RK-701, Human, Time 20, replicate values
  remaining at 20 min, 1 µM: 80.5%
[1]; human, liver microsomes, Metabolic stability, % remaining of RK-701, Human, Time 30, replicate values
  remaining at 30 min, 1 µM: 70.4%
[1]; human, liver microsomes, Metabolic stability, % remaining of RK-701, Human, Time 60, replicate values
  remaining at 60 min, 1 µM: 62.1%
[1]; human, liver microsomes, read-out: Metabolic stability in liver microsomes CLint
  microsomal CLint at 1 μM: 19 µL/min/mg
[1]; various species
  stability in liver microsomes: most stable in human liver microsomes
DNMT3b
  IC50: > 100 µM
GLP [2]
  IC50: 0.0486 µM and 0.0577 µM
GLP [3]
  IC50: 0.053 µM

## Cc1c(C(=O)N[C@H](CCC2CC2)C(=O)Nc2ccc(C#N)cc2)[nH]c2c1C(=O)CC(C)(C)C2 [RK-0133114]
HbF in HUDEP-2 cells; 3 μM
  Flow cytometric analysis in HUDEP-2 cells: 7.47 and 5.8 and 9.04
  Percentage of HbF-expressing cells: 7.4±1.3%
HbF in HUDEP-2 cells; HUDEP-2
  HbF induction: failed to increase HbF

## Nc1ncnc2c1ncn2[C@@H]1O[C@H](CSCC[C@H](N)C(=O)O)[C@@H](O)[C@H]1O [SAH, S-(5'-Adenosyl)-L-homocysteine, reference compound]
PRMT3; PRMT3, 1 μM SAM
  IC50: 2.4 µM
PRMT3; PRMT3, RK-701 in duplicate
  IC50: 2.44 µM
SUV39H2; SUV39H2, 1 μM SAM
  IC50: 20.2 µM
SUV39H2; SUV39H2, RK-701 in duplicate
  IC50: 20.2 µM
DNMT3b
  IC50: 0.112 µM
GLP [2]
  IC50: 3.86 µM
GLP [3]; 1 μM SAM
  IC50: 3.86 µM
